Here are results for 7 molecules from ChEMBL document CHEMBL5291721, “A preclinical secondary pharmacology resource illuminates target-adverse drug reaction associations of marketed drugs” (Nat Commun, 2023).

Among the targets are D(1A) dopamine receptor (Homo sapiens, UniProt P21728); D(3) dopamine receptor (Homo sapiens, UniProt P35462); Histamine H3 receptor (Homo sapiens, UniProt Q9Y5N1).
Experiment [1] deals with T1, Alpha-2A adrenergic receptor (Homo sapiens, UniProt P08913).
T1 sequence (P08913 whole entry): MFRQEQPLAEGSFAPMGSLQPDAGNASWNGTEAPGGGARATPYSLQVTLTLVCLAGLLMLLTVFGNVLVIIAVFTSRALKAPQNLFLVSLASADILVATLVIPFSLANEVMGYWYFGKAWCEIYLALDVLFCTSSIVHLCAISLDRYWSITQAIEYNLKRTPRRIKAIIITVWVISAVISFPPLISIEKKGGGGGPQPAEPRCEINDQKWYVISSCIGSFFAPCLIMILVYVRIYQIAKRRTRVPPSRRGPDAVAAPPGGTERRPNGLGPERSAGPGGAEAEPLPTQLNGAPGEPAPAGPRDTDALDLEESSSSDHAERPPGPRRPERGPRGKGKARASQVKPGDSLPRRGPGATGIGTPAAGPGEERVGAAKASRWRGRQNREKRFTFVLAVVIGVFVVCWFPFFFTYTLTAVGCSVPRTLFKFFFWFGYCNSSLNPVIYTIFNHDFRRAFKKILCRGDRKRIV

The target of another experiment is T2, B2 bradykinin receptor (Homo sapiens, UniProt P30411).
T2 sequence (P30411 whole entry): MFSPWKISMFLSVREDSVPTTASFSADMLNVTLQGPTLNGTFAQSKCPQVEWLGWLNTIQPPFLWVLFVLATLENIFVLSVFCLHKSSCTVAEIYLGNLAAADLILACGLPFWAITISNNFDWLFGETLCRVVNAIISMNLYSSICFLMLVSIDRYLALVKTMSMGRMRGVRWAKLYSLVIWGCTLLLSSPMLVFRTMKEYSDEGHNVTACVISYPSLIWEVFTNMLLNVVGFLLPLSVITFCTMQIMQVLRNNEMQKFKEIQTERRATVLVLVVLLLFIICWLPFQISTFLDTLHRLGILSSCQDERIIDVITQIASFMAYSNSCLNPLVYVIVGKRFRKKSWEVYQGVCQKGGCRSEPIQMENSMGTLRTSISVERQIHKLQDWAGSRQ

Another experiment concerns the target T3, Estrogen receptor (Homo sapiens, UniProt P03372).
T3 sequence (P03372 whole entry): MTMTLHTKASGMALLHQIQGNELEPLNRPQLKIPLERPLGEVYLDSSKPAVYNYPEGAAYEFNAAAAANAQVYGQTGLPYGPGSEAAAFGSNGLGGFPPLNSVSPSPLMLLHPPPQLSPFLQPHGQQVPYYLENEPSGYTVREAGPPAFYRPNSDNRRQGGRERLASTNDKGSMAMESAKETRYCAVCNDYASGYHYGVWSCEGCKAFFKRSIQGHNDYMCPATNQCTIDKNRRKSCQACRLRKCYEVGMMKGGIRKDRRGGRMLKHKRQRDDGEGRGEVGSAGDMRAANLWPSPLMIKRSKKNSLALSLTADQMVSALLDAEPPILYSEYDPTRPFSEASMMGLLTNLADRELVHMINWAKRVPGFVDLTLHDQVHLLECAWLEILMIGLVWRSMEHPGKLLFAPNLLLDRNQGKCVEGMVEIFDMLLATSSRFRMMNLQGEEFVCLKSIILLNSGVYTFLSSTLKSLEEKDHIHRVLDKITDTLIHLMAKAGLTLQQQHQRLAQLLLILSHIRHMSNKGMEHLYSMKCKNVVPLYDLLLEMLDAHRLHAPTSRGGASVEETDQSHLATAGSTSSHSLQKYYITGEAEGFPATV

For experiment [2], the target named is Glutamate receptor ionotropic, NMDA 1 (Rattus norvegicus, UniProt P35439).
Experiment [3] has as its target Kappa-type opioid receptor (Homo sapiens, UniProt P41145).
In experiment [4] the target is 3',5'-cyclic-AMP phosphodiesterase 4A (Homo sapiens, UniProt P27815). The class given is functional.
Experiment [5] addresses Prostaglandin G/H synthase 1 (Homo sapiens, UniProt P23219). The class given is functional.
For experiment [6], the target named is T4, Thromboxane A2 receptor (Homo sapiens, UniProt P21731).
T4 sequence (P21731 whole entry): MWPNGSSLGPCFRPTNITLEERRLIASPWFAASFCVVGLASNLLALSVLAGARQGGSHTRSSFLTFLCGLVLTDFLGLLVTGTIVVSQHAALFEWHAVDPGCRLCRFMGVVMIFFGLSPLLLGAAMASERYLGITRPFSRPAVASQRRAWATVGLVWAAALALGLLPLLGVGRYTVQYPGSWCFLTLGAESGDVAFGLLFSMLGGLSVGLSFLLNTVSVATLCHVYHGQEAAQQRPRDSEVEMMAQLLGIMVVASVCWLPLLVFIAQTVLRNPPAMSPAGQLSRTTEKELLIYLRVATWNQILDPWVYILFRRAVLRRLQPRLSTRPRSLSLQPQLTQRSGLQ
Format: functional, cell-based.

Experiment [7] deals with T4, Thromboxane A2 receptor. The class given is functional, cell-based. The source holds these as a separate data set.
Further: assay procedure not described here.

Chain of Kappa-type opioid receptor (P41145 whole entry): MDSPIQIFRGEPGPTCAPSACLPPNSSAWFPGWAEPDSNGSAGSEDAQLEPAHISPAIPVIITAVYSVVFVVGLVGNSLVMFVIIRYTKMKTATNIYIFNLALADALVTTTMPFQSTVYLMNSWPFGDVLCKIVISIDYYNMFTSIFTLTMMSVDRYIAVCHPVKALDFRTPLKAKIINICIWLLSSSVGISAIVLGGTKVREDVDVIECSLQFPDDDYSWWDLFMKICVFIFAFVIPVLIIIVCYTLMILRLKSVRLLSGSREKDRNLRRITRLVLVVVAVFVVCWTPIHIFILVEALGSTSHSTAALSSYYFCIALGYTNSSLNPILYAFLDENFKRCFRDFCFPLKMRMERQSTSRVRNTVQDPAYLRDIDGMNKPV
Chain of D(3) dopamine receptor (P35462 whole entry): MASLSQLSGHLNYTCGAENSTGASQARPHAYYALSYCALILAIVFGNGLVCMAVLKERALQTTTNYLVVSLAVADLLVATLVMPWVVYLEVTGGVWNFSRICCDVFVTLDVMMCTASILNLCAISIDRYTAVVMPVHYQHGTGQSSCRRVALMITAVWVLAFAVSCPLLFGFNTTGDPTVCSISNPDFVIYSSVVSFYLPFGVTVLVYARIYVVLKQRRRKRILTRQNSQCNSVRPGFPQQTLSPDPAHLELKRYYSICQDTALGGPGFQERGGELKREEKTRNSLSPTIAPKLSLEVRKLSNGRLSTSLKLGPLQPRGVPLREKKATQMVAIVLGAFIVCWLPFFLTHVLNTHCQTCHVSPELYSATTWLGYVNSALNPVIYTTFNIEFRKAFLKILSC
Chain of Prostaglandin G/H synthase 1 (P23219 whole entry): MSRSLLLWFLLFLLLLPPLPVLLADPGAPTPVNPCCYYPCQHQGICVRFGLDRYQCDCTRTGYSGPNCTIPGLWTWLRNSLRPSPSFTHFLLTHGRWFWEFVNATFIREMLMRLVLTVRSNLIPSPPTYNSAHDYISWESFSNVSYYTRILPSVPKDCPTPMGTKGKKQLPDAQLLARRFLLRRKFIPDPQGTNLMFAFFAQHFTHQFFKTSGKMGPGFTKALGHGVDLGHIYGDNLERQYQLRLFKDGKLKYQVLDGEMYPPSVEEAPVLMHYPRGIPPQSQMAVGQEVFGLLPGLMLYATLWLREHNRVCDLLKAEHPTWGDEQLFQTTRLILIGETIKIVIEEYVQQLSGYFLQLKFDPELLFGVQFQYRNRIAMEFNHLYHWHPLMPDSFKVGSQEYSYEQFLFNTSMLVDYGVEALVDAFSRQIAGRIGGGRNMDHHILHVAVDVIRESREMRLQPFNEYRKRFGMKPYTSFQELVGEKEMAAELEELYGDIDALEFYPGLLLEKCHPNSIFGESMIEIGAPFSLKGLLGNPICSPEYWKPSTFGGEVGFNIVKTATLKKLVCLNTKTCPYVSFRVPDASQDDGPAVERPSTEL
Chain of Histamine H3 receptor (Q9Y5N1 whole entry): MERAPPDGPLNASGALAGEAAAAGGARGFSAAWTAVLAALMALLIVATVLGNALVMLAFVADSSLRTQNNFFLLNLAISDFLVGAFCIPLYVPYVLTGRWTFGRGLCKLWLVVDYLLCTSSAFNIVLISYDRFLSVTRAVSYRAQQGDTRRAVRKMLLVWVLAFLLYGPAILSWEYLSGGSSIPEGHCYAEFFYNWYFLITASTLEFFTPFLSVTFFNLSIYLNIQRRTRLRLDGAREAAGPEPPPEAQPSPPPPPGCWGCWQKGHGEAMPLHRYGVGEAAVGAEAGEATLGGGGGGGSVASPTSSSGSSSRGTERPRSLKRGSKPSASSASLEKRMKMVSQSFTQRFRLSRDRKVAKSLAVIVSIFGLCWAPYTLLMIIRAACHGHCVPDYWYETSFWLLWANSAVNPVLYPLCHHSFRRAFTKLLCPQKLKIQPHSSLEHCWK
Chain of 3',5'-cyclic-AMP phosphodiesterase 4A (P27815 whole entry): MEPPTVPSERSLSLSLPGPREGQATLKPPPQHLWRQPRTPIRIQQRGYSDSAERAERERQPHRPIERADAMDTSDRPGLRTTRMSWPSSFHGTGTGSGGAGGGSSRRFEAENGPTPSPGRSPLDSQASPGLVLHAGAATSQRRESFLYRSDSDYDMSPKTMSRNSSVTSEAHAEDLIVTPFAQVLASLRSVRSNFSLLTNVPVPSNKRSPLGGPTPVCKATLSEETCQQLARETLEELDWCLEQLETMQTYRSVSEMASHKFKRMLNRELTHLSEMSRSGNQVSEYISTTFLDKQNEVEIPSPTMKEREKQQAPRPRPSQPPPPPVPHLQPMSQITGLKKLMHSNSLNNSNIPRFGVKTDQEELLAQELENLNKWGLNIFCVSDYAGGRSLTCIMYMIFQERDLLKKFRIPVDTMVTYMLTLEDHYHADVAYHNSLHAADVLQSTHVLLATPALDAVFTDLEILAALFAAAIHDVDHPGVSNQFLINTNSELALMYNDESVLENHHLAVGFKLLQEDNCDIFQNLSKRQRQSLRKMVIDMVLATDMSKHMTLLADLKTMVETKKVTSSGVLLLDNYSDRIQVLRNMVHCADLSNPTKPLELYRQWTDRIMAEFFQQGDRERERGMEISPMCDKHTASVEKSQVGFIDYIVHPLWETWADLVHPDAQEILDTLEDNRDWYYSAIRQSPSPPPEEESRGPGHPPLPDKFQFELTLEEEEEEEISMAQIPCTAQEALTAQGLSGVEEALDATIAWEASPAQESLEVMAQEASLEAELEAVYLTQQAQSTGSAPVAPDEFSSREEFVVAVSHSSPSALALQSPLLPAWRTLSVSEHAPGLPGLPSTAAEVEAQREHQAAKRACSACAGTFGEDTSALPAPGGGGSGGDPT
Chain of D(1A) dopamine receptor (P21728 whole entry): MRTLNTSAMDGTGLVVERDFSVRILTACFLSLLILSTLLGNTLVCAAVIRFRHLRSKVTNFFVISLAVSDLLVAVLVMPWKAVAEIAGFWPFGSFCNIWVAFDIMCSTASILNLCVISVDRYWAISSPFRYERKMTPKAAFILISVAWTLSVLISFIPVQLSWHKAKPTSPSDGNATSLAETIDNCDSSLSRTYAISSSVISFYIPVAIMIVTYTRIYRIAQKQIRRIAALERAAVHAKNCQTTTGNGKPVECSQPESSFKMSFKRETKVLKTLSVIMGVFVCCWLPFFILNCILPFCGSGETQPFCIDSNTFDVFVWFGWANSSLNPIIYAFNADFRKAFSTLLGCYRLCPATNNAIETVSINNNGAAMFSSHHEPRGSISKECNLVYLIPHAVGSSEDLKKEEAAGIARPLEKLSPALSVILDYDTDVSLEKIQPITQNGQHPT

`Oc1ncnc2[nH]ncc12` [ALLOPURINOL]: the AC50 in experiment [1] was > 30 µM; at B2 bradykinin receptor, > 30 µM; at D(1A) dopamine receptor, > 30 µM; at D(3) dopamine receptor it was > 30 µM; on Estrogen receptor it was > 30 µM; in experiment [2], > 10 µM. Also, the AC50 at Histamine H3 receptor was > 30 µM; in experiment [3], > 10 µM; in experiment [4] it was > 30 µM; in experiment [5], > 30 µM; at Thromboxane A2 receptor [6], > 30 µM; on Thromboxane A2 receptor [7] it was > 30 µM.
On to `C#C[C@]1(O)CC[C@H]2[C@@H]3CCc4cc(O)ccc4[C@H]3CC[C@@]21C` [ETHINYL ESTRADIOL], for which the concentration at half-maximal activity (AC50) in experiment [1] is > 30 µM; on B2 bradykinin receptor it was > 30 µM; on D(1A) dopamine receptor, > 30 µM; at D(3) dopamine receptor, > 30 µM; in experiment [2] it was > 10 µM; on Histamine H3 receptor, > 30 µM. The AC50 was > 10 µM in [3]; 20.1 µM in [4]; > 30 µM in experiment [5]; > 30 µM on Thromboxane A2 receptor [6]; > 10 µM on Thromboxane A2 receptor [7].
In the case of `CCc1ccc(CCOc2ccc(CC3SC(=O)NC3=O)cc2)nc1` (configuration not stated) [PIOGLITAZONE], the AC50 was > 30 µM in experiment [1]; > 30 µM on B2 bradykinin receptor; > 30 µM at D(1A) dopamine receptor; > 30 µM on D(3) dopamine receptor; > 30 µM at Estrogen receptor; > 10 µM in [2]. In addition, the AC50 on Histamine H3 receptor was > 3 µM; in experiment [3] it was > 10 µM; in experiment [4], > 10 µM; in experiment [5], > 30 µM; at Thromboxane A2 receptor [6] it was > 30 µM; at Thromboxane A2 receptor [7], 9.68 µM.
For the molecule `CC(C)C(=O)Nc1ccc([N+](=O)[O-])c(C(F)(F)F)c1` [FLUTAMIDE], the AC50 in [1] is > 30 µM; on B2 bradykinin receptor it was > 30 µM; on D(1A) dopamine receptor, > 30 µM; at D(3) dopamine receptor, > 30 µM; at Estrogen receptor, > 10 µM; in [2], > 10 µM. In addition, the AC50 at Histamine H3 receptor is > 30 µM; in [3], > 10 µM; in experiment [4], > 30 µM; in experiment [5], > 30 µM; at Thromboxane A2 receptor [6] it was > 30 µM; at Thromboxane A2 receptor [7] it was 18.4 µM.
For `NC(=O)c1cnccn1` [PYRAZINAMIDE], the AC50 (in experiment [1]; on B2 bradykinin receptor; at D(1A) dopamine receptor; at D(3) dopamine receptor; at Estrogen receptor; in [2]) was > 30 µM throughout. Also, the AC50 (on Histamine H3 receptor; in [3]; in experiment [4]; in [5]; on Thromboxane A2 receptor [6]; on Thromboxane A2 receptor [7]) was > 30 µM throughout.
In the case of `Nc1nc(N)c2nc(-c3ccccc3)c(N)nc2n1`, the AC50 (in experiment [1]; on B2 bradykinin receptor; at D(1A) dopamine receptor; on D(3) dopamine receptor; on Estrogen receptor; in experiment [2]) was > 30 µM each time. The AC50 at Histamine H3 receptor was > 30 µM; in experiment [3], > 30 µM; in experiment [4] it was 20.8 µM; in experiment [5], > 30 µM; at Thromboxane A2 receptor [6], > 30 µM; on Thromboxane A2 receptor [7], > 30 µM.
Take `C[C@H]1O[C@H](O[C@H]2[C@H](O)[C@@H](O)[C@@H](O[C@H]3[C@H](O)[C@@H](O)C(O)O[C@@H]3CO)O[C@@H]2CO)[C@H](O)[C@@H](O)[C@@H]1N[C@H]1C=C(CO)[C@@H](O)[C@H](O)[C@H]1O` (some centres not stated) [ACARBOSE]: the half-maximal activity concentration (AC50) in [1] was > 30 µM; at B2 bradykinin receptor it was > 30 µM; on D(1A) dopamine receptor it was > 30 µM; on D(3) dopamine receptor, > 30 µM; in experiment [2], > 10 µM; on Histamine H3 receptor, > 30 µM. Also, the AC50 in experiment [3] was > 10 µM; in experiment [4], 5.08 µM; in experiment [5], > 30 µM; on Thromboxane A2 receptor [6], > 30 µM; at Thromboxane A2 receptor [7], > 30 µM.

For orientation: AC50 means the concentration at which the activity in the assay is half-maximal.
